According to patent US11008339B2, “Substituted pyrazole compounds containing pyrimidine and preparation method and use thereof” (Shenyang Sinochem Agrochemicals R&D Co., Ltd., priority 2015, dated 2021):

Tested on: rice blast
Assay: microbe, parasite or virus in culture
Format: cell-based
Settings: Pyricularia oryzae, 24 h, read-out: inhibition rate against rice blast

Structure (SMILES) | inhibition at 25 ppm [%] | inhibition at 2.8 ppm [%] | inhibition at 8.3 ppm [%]
Cc1cc(N(C)Cc2c(C)nn(-c3ccccc3)c2C)nc(C)n1 [CK5] | 0 | – | –
Cc1nc(C)c(C)c(N(C)Cc2cnn(-c3ccccc3)c2)n1 [CK3] | 0 | – | –
CC(COc1ccn(-c2ccc(Cl)cc2)n1)Nc1ncnc2scc(Cl)c12 (stereo not drawn) [Compound 44-19] | > 80 | > 80 | > 80
CCc1ncnc(NCc2cnn(-c3ccccc3)c2C(F)(F)F)c1Cl [CK2] | 0 | – | –
Cc1cc(N(C)Cc2cnn(-c3ccccc3)c2)nc(C(C)C)n1 [CK4] | 0 | – | –
CCc1ncnc(NCc2cnn(-c3ccccc3)c2C)c1Cl [CK1] | 0 | – | –

Tested on: cucumber gray mold
Assay: Fungicidal activity in vitro (96-well, inhibition rate) against cucumber gray mold
Format: cell-based
Settings: 24 hours

Structure (SMILES) | inhibition at 25 ppm [%]
Cc1cc(N(C)Cc2c(C)nn(-c3ccccc3)c2C)nc(C)n1 [CK5] | 0
Cc1nc(C)c(C)c(N(C)Cc2cnn(-c3ccccc3)c2)n1 [CK3] | 0
CC(COc1ccn(-c2ccc(Cl)cc2)n1)Nc1ncnc2scc(Cl)c12 (stereo not drawn) [Compound 44-19] | > 80
CCc1ncnc(NCc2cnn(-c3ccccc3)c2C(F)(F)F)c1Cl [CK2] | 0
Cc1cc(N(C)Cc2cnn(-c3ccccc3)c2)nc(C(C)C)n1 [CK4] | 0
CCc1ncnc(NCc2cnn(-c3ccccc3)c2C)c1Cl [CK1] | 0

Tested on: cucumber downy mildew
Assay: Protective activity in vivo (whole plant spray) against cucumber downy mildew
Settings: 25 mg/L, comparative test (Table 129)
Method: (§1) The method is as followed: The whole plant is used in this test. The compound is dissolved in a proper solvent to get mother solution. The proper solvent is selected from acetone, methanol, DMF and so on according to their dissolving capability to the sample. The volume rate of solvent and testing solution (v/v) is equal to or less than 5%. […] The testing solution is sprayed to the host plant by a special plant sprayer. The plant is inoculated with fungus after 24 hours. According to the infecting characteristic of fungus, the plant is stored in a humidity chamber and then transferred into greenhouse after infection is finished. And the other plants are placed in greenhouse directly.

Structure (SMILES) | protective activity (%) against cucumber downy mildew [%]
Cc1ncnc(NCCOc2ccn(-c3c(Cl)cccc3Cl)n2)c1Cl [Compound 31-23] | 100
Clc1cccc(-n2ccc(OCCNc3ncnc4scc(Cl)c34)n2)c1 [Compound 42-18] | 100
Clc1cccc(-n2ccc(OCCNc3ncnc4ccccc34)n2)c1 [Compound 40-18] | 100
CC(COc1ccn(-c2ccc(Cl)cc2)n1)Nc1ncnc(Cl)c1Cl (stereo not drawn) [Compound 35-19] | 100
Clc1ccc(-n2ccc(OCCNc3ncnc4ccccc34)n2)cc1 [Compound 40-19] | 96
Fc1ccc(-n2ccc(OCCNc3ncnc4ccccc34)n2)cc1 [Compound 40-4] | 100
FC(F)c1ncnc(NCCCOc2ccn(-c3ccc(C(F)(F)F)cc3)n2)c1Cl [Compound 126-69] | 70
Clc1csc2ncnc(NCCOc3ccn(-c4ccccc4)n3)c12 [Compound 42-1] | 100
Clc1ccc(-n2ccc(OCCNc3ncnc4scc(Cl)c34)n2)c(Cl)c1 [Compound 42-21] | 100

Same assay, conditions: Cucumis sativus; 25 mg/L, comparative test (Table 129); read-out: protective activity (%) against cucumber downy mildew

Structure (SMILES) | inhibition at 25 µg/mL [%]
Cc1cc(N(C)Cc2c(C)nn(-c3ccccc3)c2C)nc(C)n1 [CK5] | 0
Cc1nc(C)c(C)c(N(C)Cc2cnn(-c3ccccc3)c2)n1 [CK3] | 0
CC(COc1ccn(-c2ccc(Cl)cc2)n1)Nc1ncnc2scc(Cl)c12 (stereo not drawn) [Compound 44-19] | 100
CCc1ncnc(NCc2cnn(-c3ccccc3)c2C(F)(F)F)c1Cl [CK2] | 20
Cc1cc(N(C)Cc2cnn(-c3ccccc3)c2)nc(C(C)C)n1 [CK4] | 0
CCc1ncnc(NCc2cnn(-c3ccccc3)c2C)c1Cl [CK1] | 20

Tested on: wheat powdery mildew
Assay: Protective activity in vivo (whole plant spray) against wheat powdery mildew
Settings: 100 mg/L, comparative test (Table 130)
Method: as §1

Structure (SMILES) | protective activity (%) against wheat powdery mildew [%]
CC(COc1ccn(-c2ccc(Cl)cc2)n1)Nc1ncnc(Cl)c1Cl (stereo not drawn) [Compound 35-19] | 70
FC(F)c1ncnc(NCCCOc2ccn(-c3ccc(C(F)(F)F)cc3)n2)c1Cl [Compound 126-69] | 100

Same assay, conditions: Triticum aestivum; 100 mg/L, comparative test (Table 130)

Structure (SMILES) | inhibition at 100 µg/mL [%]
Cc1cc(N(C)Cc2c(C)nn(-c3ccccc3)c2C)nc(C)n1 [CK5] | 0
Cc1nc(C)c(C)c(N(C)Cc2cnn(-c3ccccc3)c2)n1 [CK3] | 0
CC(COc1ccn(-c2ccc(Cl)cc2)n1)Nc1ncnc2scc(Cl)c12 (stereo not drawn) [Compound 44-19] | 100
CCc1ncnc(NCc2cnn(-c3ccccc3)c2C(F)(F)F)c1Cl [CK2] | 50
Cc1cc(N(C)Cc2cnn(-c3ccccc3)c2)nc(C(C)C)n1 [CK4] | 0

Tested on: corn rust
Assay: Protective activity in vivo (whole plant spray) against corn rust
Settings: 25 mg/L, comparative test (Table 131)
Method: as §1

Structure (SMILES) | control effect against corn rust (%)
Cc1cc(N(C)Cc2c(C)nn(-c3ccccc3)c2C)nc(C)n1 [CK5] | 60
Cc1nc(C)c(C)c(N(C)Cc2cnn(-c3ccccc3)c2)n1 [CK3] | 0
Cc1cc(N(C)Cc2cnn(-c3ccccc3)c2)nc(C(C)C)n1 [CK4] | 0

Same assay, conditions: 100 mg/L, comparative test (Table 131)

Structure (SMILES) | control effect against corn rust (%)
Cc1cc(N(C)Cc2c(C)nn(-c3ccccc3)c2C)nc(C)n1 [CK5] | 70
Cc1nc(C)c(C)c(N(C)Cc2cnn(-c3ccccc3)c2)n1 [CK3] | 20
Cc1cc(N(C)Cc2cnn(-c3ccccc3)c2)nc(C(C)C)n1 [CK4] | 0

Tested on: cucumber anthracnose
Assay: Protective activity in vivo (whole plant spray) against cucumber anthracnose
Settings: 100 mg/L, comparative test (Table 132)
Method: as §1

Structure (SMILES) | protective activity (%) against cucumber anthracnose [%]
Clc1ccc(-n2ccc(OCCNc3ncnc4ccccc34)n2)cc1 [Compound 40-19] | 100
FC(F)c1ncnc(NCCCOc2ccn(-c3ccc(C(F)(F)F)cc3)n2)c1Cl [Compound 126-69] | 95
Clc1csc2ncnc(NCCOc3ccn(-c4ccccc4)n3)c12 [Compound 42-1] | 95

Same assay, conditions: 6.25 ppm, protective, in vivo

Structure (SMILES) | control against cucumber anthracnose [%]
Clc1csc2ncnc(NCCOc3ccn(-c4ccccc4)n3)c12 [Compound 42-1] | 90

Same assay, conditions: Cucumis sativus; 100 mg/L, comparative test (Table 132); read-out: protective activity (%) against cucumber anthracnose

Structure (SMILES) | inhibition at 100 µg/mL [%]
Cc1cc(N(C)Cc2c(C)nn(-c3ccccc3)c2C)nc(C)n1 [CK5] | 0
Cc1nc(C)c(C)c(N(C)Cc2cnn(-c3ccccc3)c2)n1 [CK3] | 0
Cc1cc(N(C)Cc2cnn(-c3ccccc3)c2)nc(C(C)C)n1 [CK4] | 0

Tested on: diamond back moth
Assay: Bioactivity test against diamond back moth (airbrush spray, leaf disc)
Format: in vivo
Settings: 600 mg/L, contrastive test (Table 133)
Method: (§2) Compounds were dissolved in mixed solvent (acetone:methanol=1:1), and diluted to required concentration with water containing 0.1% of tween 80.
(§3) Diamond back moth, armyworm, peach aphid and carmine spider mite were used as targets and the method of spraying by airbrush was used for determination of insecticidal biassays.
The method of spraying by airbrush: The cabbage leaves were made into plates of 2 cm diameter by use of punch. A test solution (0.5 ml) was sprayed by airbrush at the pressure of 0.7 kg/cm^2 to both sides of every plate. 10 Second instar larvae were put into the petri-dishes after the leaf disc air-dried and 3 replicates were set for each treatment. Then the insects were maintained in observation room (25° C., 60˜70% R.H.). Scores were conducted and mortalities were calculated after 72 h.

Structure (SMILES) | Insecticidal activity against diamond back moth (%)
Cc1cc(N(C)Cc2c(C)nn(-c3ccccc3)c2C)nc(C)n1 [CK5] | 0
Cc1nc(C)c(C)c(N(C)Cc2cnn(-c3ccccc3)c2)n1 [CK3] | 0
CCc1ncnc(NCc2cnn(-c3ccccc3)c2C(F)(F)F)c1Cl [CK2] | 20
Cc1cc(N(C)Cc2cnn(-c3ccccc3)c2)nc(C(C)C)n1 [CK4] | 0
CCc1ncnc(NCc2cnn(-c3ccccc3)c2C)c1Cl [CK1] | 43

Tested on: Green peach aphids (Myzus Persicae Sulzer)
Assay: Bioactivity test against green peach aphid (airbrush foliar spray)
Format: in vivo
Settings: 100 mg/L, contrastive test (Table 134)
Method: as §2, §3
Method: Filter papers were put in culture dishes (Diameter=6 cm), and water was dripped on filter papers for preserving moisture. Green peach aphids (Myzus Persicae Sulzer) were maintained on cabbage. Leaves (Diameter=3 cm) of approximately 15-30 aphids were put in the culture dishes. Bioactivity tests were used the method of Airbrush Foliar Spray, pressure=10 psi (0.7 kg/cm2), spray volume=0.5 mL. The studies were conducted at […] 25±1 C in incubator cabinets with 60±5% RH. Survey the survival aphids after 48 h and calculate the death rates.

Structure (SMILES) | Insecticidal activity against peach aphid (%)
Cc1cc(N(C)Cc2c(C)nn(-c3ccccc3)c2C)nc(C)n1 [CK5] | 22
Cc1nc(C)c(C)c(N(C)Cc2cnn(-c3ccccc3)c2)n1 [CK3] | 30
Cc1cc(N(C)Cc2cnn(-c3ccccc3)c2)nc(C(C)C)n1 [CK4] | 0
CCc1ncnc(NCc2cnn(-c3ccccc3)c2C)c1Cl [CK1] | 0

Tested on: carmine spider mite
Assay: Bioactivity test against carmine spider mite (airbrush spray)
Format: in vivo
Settings: 100 mg/L, contrastive test (Table 135)
Method: as §2, §3
The method: Broadbean shoots with two true leaves in pot were taken, the healthy adults of carmine spider mite were inoculated to the leaves. The adults were counted and then sprayed with airbrush at the pressure of 0.7 kg/cm^2 and at dose of 0.5 ml. 3 replicates were set for each treatment. And then they were maintained in standard observation room. Scores were conducted and mortalities were calculated after 72 hrs.

Structure (SMILES) | Insecticidal activity against carmine spider mite (%)
CC(COc1ccn(-c2ccc(Cl)cc2)n1)Nc1ncnc2scc(Cl)c12 (stereo not drawn) [Compound 44-19] | 100

Same assay, conditions: 600 mg/L, contrastive test (Table 135)

Structure (SMILES) | Insecticidal activity against carmine spider mite (%)
Cc1cc(N(C)Cc2c(C)nn(-c3ccccc3)c2C)nc(C)n1 [CK5] | 58
Cc1nc(C)c(C)c(N(C)Cc2cnn(-c3ccccc3)c2)n1 [CK3] | 56
CC(COc1ccn(-c2ccc(Cl)cc2)n1)Nc1ncnc2scc(Cl)c12 (stereo not drawn) [Compound 44-19] | 100
Cc1cc(N(C)Cc2cnn(-c3ccccc3)c2)nc(C(C)C)n1 [CK4] | 59
